From patent publication US11236354B2, “Glyphosate-n-acetyltransferase (GLYAT) sequences and methods of use” (PIONEER HI-BRED INTERNATIONAL, INC., priority 2013, dated 2022) come the findings set out here.

Several values for one entry are separate records, joined by “and”; a condition that tells them apart may be missing. Identical values can stand only once.

What all share (assay): Substrate saturation kinetic analysis of purified GLYAT
The target in test [1] is GLYAT variant SEQ ID NO:7 (derived from SEQ ID NO:1 and 2) (Bacillus licheniformis, UniProt Q65LG7, A28V/D131E/E119K/E14D/E65Q/E67K/E68K/E79G/E83D/G37R/G38S/G48A/I132L/I135A/I15L/I19V/I2L/I53V/I91V/K101R/K144R/K58Q/L105M/L106I/L26I/L36T/L97I/M75V/N109F/R47G/R92K/T33S/T89S/V114A/Y130F/Y31W/Y45F). The class given is biochemical. The procedure: (§1) E. coli cultures in LB or 2×YT were grown overnight at 37° C. to saturation. The cells were used as a 2% inoculum into fresh media. When OD reached 0.6, IPTG was added to 0.2 mM and growth was continued for at least 6 hours. Cells were harvested by centrifugation and stored at −80° C. Cells were lysed with BPER (Pierce) containing 1 mM dithiothreitol, 0.2 mg/ml lysozyme, 2 mg/ml protease inhibitor cocktail (Sigma bacterial cell cocktail, P8465) and endonuclease. Lysate supernatants were passed through a column of NHS-activated Agarose (Thermo, #26197) derivatized with coenzyme A. Columns were washed with 25 mM Hepes, pH 7, containing progressively higher concentrations of KCl, then eluted with 25 mM Hepes, 100 mM KCl, 10% ethylene glycol and 1 mM acetyl CoA. Purity as evaluated by polyacrylamide gel electrophoresis was deemed consistently high enough to be assumed to be 100%. Protein concentration was determined with the Bradford assay using a large-scale lot of produced GLYAT protein as standard.
(§2) Kinetic parameters for various substrates were obtained using a range of seven substrate concentrations plus a blank containing none of the varied substrate. The non-varied substrate was present at a saturating concentration. Six-microliter aliquots of 50-fold concentrated stock solutions of the varied substrate were placed in a 96-well assay plate (Greiner BioOne UV-Star). Reactions were started with the addition of 294 ul of 25 mM Hepes, pH 7.0, 100 mM KCL, 10% ethylene glycol, the non-varied substrate and 10 to 200 nM enzyme. Absorbance was monitored for one minute with a Spectramax 384 Plus plate reader (Molecular Devices). If the amino acid present at position 30 (29 if alanine is absent at position 2) was cysteine, absorbance was monitored at 235 nm, which directly detects cleavage of the sulfoester bond of acetyl CoA. If the amino acid present at position 30 (29 if alanine is absent at position 2) was isoleucine, 0.5 mM 5,5′-dithiobis-(2-nitrobenzoic acid), which reacts with the coenzyme A thiol generated in the enzyme catalyzed reaction, was included in the reaction mix and absorbance was monitored at 412 nm. Initial rates were processed by the Softmax software to obtain kinetic parameters, using the double-reciprocal transformation.

Test [2] has as its target T1, native GLYAT (glyphosate-N-acetyltransferase), SEQ ID NO:173 (Bacillus licheniformis, UniProt Q65LG7).
T1 sequence (Q65LG7 1-146): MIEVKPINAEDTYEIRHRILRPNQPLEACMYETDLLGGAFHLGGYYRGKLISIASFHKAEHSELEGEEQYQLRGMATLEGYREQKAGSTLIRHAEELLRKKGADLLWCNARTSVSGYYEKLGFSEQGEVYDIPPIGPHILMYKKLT
The class given is biochemical. The settings on record: Table 5; native GLYAT SEQ ID NO:173; ratio of kcat/Km asp to kcat/Km glyph. The procedure:
as §1, §2

The target of test [3] is novel GLYAT variants of Table 3 (high specificity variants derived from SEQ ID NO:1 and 2) (Bacillus licheniformis, UniProt Q65LG7). The test is classed as biochemical. The settings on record: lowest value in novel variants. On the procedure:
as §1, §2

The target of test [4] is GLYAT (glyphosate-N-acetyltransferase), parent, SEQ ID NO:1 (Bacillus licheniformis, UniProt Q65LG7, E119R/E14D/E65Q/E67K/E68K/G37R/G38S/I132T/I135V/I15L/I19V/I53V/I91V/K101R/K144R/K58Q/L105M/L106I/L145I/L26I/L36T/L97I/M75V/R47G/R92K/T33S/T89S/V114A/Y130F/Y31F/Y45F).
Sequence of GLYAT (glyphosate-N-acetyltransferase), parent, SEQ ID NO:1 (Q65LG7 entry or part of it with the stated changes): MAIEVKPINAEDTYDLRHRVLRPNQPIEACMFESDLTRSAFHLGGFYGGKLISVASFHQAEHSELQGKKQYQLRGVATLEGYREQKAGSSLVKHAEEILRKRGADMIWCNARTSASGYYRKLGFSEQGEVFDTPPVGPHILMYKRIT
Test [5] has as its target GLYAT (glyphosate-N-acetyltransferase), parent, SEQ ID NO:2 (Bacillus licheniformis, UniProt Q65LG7, A28V/D131E/E119K/E63D/E65Q/E67Q/E68K/E83D/E96Q/G37R/I132T/I135V/I15L/I2L/K101R/K144R/K58Q/L105M/L97I/R18K/T89S/V114A/Y130F/Y45F). The note with it: pH 7.0.
In test [6] the target is GLYAT variant SEQ ID NO:3 (derived from SEQ ID NO:1 and 2) (Bacillus licheniformis, UniProt Q65LG7, A28V/D131E/E119K/E14D/E65Q/E67K/E68K/E83D/G37R/I132T/I135V/I15L/I19V/I2L/I53V/I91V/K101R/K144R/K58Q/L105M/L106I/L26I/L97I/M75V/R47G/R92K/T89S/V114A/Y130F/Y45F). The note with it: pH 7.0.
Test [7] deals with GLYAT variant SEQ ID NO:5 (derived from SEQ ID NO:1 and 2) (Bacillus licheniformis, UniProt Q65LG7, A28V/D131E/E14D/E65Q/E67K/E68K/G37R/I132T/I135A/I15L/I19V/I53V/I91V/K101R/K144R/K58Q/L105M/L106I/L26I/L97I/M75V/R47G/R92K/T89S/V114A/Y130F/Y45F). The note with it: pH 7.0.
In test [8] the target is GLYAT variant SEQ ID NO:6 (derived from SEQ ID NO:1 and 2) (Bacillus licheniformis, UniProt Q65LG7, A28V/D131E/E119K/E14D/E65Q/E67K/E68K/G37R/I132T/I135A/I15L/I19V/I53V/I91V/K101R/K144R/K58Q/L105M/L106I/L26I/L36T/L97I/M75A/R47G/R92K/T89S/V114A/V4I/Y130F/Y45F/Y46C). The settings on record: pH 7.0.
The mark [9] stands for this setting: pH 7.0, non-varied substrate saturating.

Sequence of GLYAT (glyphosate-N-acetyltransferase), parent, SEQ ID NO:2 (Q65LG7 entry or part of it with the stated changes): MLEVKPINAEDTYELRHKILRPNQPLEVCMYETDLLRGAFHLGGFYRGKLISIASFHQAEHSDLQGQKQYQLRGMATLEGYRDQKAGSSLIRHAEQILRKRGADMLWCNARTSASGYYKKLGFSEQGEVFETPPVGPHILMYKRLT

`N[C@@H](CC(=O)O)C(=O)O` [aspartate]: the “Asp as % of glyph (kcat/KM asp / kcat/KM glyph)” value stood at 0.154% in test [1] (pH 7.0); 1.273% in test [4] (pH 7.0); 0.574% in test [5]; 0.403% in test [6]; 0.059% in test [7]; 0.052% in test [8]. For the same compound, the “kcat (aspartate)” value in test [1] (setting [9]) amounted to 1.52 s⁻¹. Also, the “kcat/KM (aspartate)” value in test [1] (setting [9]) amounted to 13.7 M⁻¹ s⁻¹. Besides, the “kcat/Km asp, % glyph” value is 55.6% in test [2]; 1.3% and 1.27% in test [4] (Table 5 and text, specificity (kcat/KM asp/kcat/KM glyph), listed as asp). Also, the “specificity (kcat/KM asp/kcat/KM glyph)” value in test [3] was at least 0.014%. For the same compound, the kcat/KM with aspartate in test [3] (25 mM Hepes, pH 7.0) is at least 1.7 M⁻¹ s⁻¹; in test [4] (25 mM Hepes, pH 7.0), 228 M⁻¹ s⁻¹.
